# Tested on: 439559-082-T-J2-PDC spheroids viability
# Test: Anticancer human tumor 439559-082-T-J2-PDC patient-derived colon adenocarcinoma cell line growth inhibition [GQUAD]
# Settings: for IC50: curve of first compound; for viability, T/C: stronger effect = lower value
# Outline: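 Viability of tumor cells grown as complex spheroids with endothelial and stromal cells, exposed to drug combinations. Top concentration at or near clinical Cmax (else 10 microM), diluted in half-log increments.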
# [1] = second compound 0.0316 µM, first compound 0.000999 µM
# [2] = second compound 0.0316 µM, first compound 0.00316 µM
# [3] = second compound 0.0316 µM, first compound 0.00999 µM
# [4] = second compound 0.0316 µM, first compound 0.0316 µM
# [5] = second compound 0.0316 µM, first compound 0.0999 µM
# [6] = second compound 0.0316 µM, first compound 0.316 µM
# [7] = second compound 0.1 µM, first compound 0.000999 µM
# [8] = second compound 0.1 µM, first compound 0.00316 µM
# [9] = second compound 0.1 µM, first compound 0.00999 µM
# [10] = second compound 0.1 µM, first compound 0.0316 µM
# [11] = second compound 0.1 µM, first compound 0.0999 µM
# [12] = second compound 0.1 µM, first compound 0.316 µM
# [13] = second compound 0.316 µM, first compound 0.000999 µM
# [14] = second compound 0.316 µM, first compound 0.00316 µM
# [15] = second compound 0.316 µM, first compound 0.00999 µM
# [16] = second compound 0.316 µM, first compound 0.0316 µM
# [17] = second compound 0.316 µM, first compound 0.0999 µM
# [18] = second compound 0.316 µM, first compound 0.316 µM
# [19] = second compound 1 µM, first compound 0.000999 µM
# [20] = second compound 1 µM, first compound 0.00316 µM
# [21] = second compound 1 µM, first compound 0.00999 µM
# [22] = second compound 1 µM, first compound 0.0316 µM
# [23] = second compound 1 µM, first compound 0.0999 µM
# [24] = second compound 1 µM, first compound 0.316 µM
# [25] = second compound 3.16 µM, first compound 0.000999 µM
# [26] = second compound 3.16 µM, first compound 0.00316 µM
# [27] = second compound 3.16 µM, first compound 0.00999 µM
# [28] = second compound 3.16 µM, first compound 0.0316 µM
# [29] = second compound 3.16 µM, first compound 0.0999 µM
# [30] = second compound 3.16 µM, first compound 0.316 µM
# [31] = second compound 10 µM, first compound 0.000999 µM
# [32] = second compound 10 µM, first compound 0.00316 µM
# [33] = second compound 10 µM, first compound 0.00999 µM
# [34] = second compound 10 µM, first compound 0.0316 µM
# [35] = second compound 10 µM, first compound 0.0999 µM
# [36] = second compound 10 µM, first compound 0.316 µM
# 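Also: spheroids exposed to the agents for 7 days before readout.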
# 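For viability, T/C in this document: percent of luminescence signal in DMSO vehicle wells taken as 100% viability.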
structure (smiles),measurement,setting,value
CC[C@@]1(O)C(=O)OCc2c1cc1n(c2=O)Cc2cc3c(CN(C)C)c(O)ccc3nc2-1 + Cc1cnc(CNC(=O)c2c(=O)c3ccc(N4CCCN(C)CC4)nc3n3c2sc2ccccc23)cn1,IC50,second compound 0.0316 µM,> 316 nM
same,IC50,second compound 0.1 µM,> 316 nM
same,IC50,second compound 0.316 µM,> 316 nM
same,IC50,second compound 1 µM,> 316 nM
same,IC50,second compound 3.16 µM,> 316 nM
same,IC50,second compound 10 µM,> 316 nM
same,"viability, T/C",[1],98.9%
same,"viability, T/C",[2],89.6%
same,"viability, T/C",[3],94.6%
same,"viability, T/C",[4],88.7%
same,"viability, T/C",[5],82.4%
same,"viability, T/C",[6],81.9%
same,"viability, T/C",[7],91.7%
same,"viability, T/C",[8],81.5%
same,"viability, T/C",[9],96.5%
same,"viability, T/C",[10],95.8%
same,"viability, T/C",[11],83%
same,"viability, T/C",[12],81.8%
same,"viability, T/C",[13],79.7%
same,"viability, T/C",[14],85.2%
same,"viability, T/C",[15],79.5%
same,"viability, T/C",[16],75.8%
same,"viability, T/C",[17],83.4%
same,"viability, T/C",[18],69%
same,"viability, T/C",[19],73.5%
same,"viability, T/C",[20],70.3%
same,"viability, T/C",[21],74.5%
same,"viability, T/C",[22],79.1%
same,"viability, T/C",[23],80%
same,"viability, T/C",[24],67.4%
same,"viability, T/C",[25],71.5%
same,"viability, T/C",[26],72%
same,"viability, T/C",[27],68.6%
same,"viability, T/C",[28],71.4%
same,"viability, T/C",[29],72.8%
same,"viability, T/C",[30],66.9%
same,"viability, T/C",[31],64.3%
same,"viability, T/C",[32],71.8%
same,"viability, T/C",[33],66.6%
same,"viability, T/C",[34],70.7%
same,"viability, T/C",[35],66.4%
same,"viability, T/C",[36],61.1%
CCc1c2c(nc3ccc(O)cc13)-c1cc3c(c(=O)n1C2)COC(=O)[C@]3(O)CC + Cc1cnc(CNC(=O)c2c(=O)c3ccc(N4CCCN(C)CC4)nc3n3c2sc2ccccc23)cn1,IC50,second compound 0.0316 µM,157 nM
same,IC50,second compound 0.1 µM,122 nM
same,IC50,second compound 0.316 µM,125 nM
same,IC50,second compound 1 µM,92.4 nM
same,IC50,second compound 3.16 µM,61 nM
same,IC50,second compound 10 µM,67.2 nM
same,"viability, T/C",[1],99.4%
same,"viability, T/C",[2],83.5%
same,"viability, T/C",[3],78.8%
same,"viability, T/C",[4],66.4%
same,"viability, T/C",[5],53.7%
same,"viability, T/C",[6],43.1%
same,"viability, T/C",[7],88.7%
same,"viability, T/C",[8],79.5%
same,"viability, T/C",[9],76.2%
same,"viability, T/C",[10],68.1%
same,"viability, T/C",[11],53.4%
same,"viability, T/C",[12],34%
same,"viability, T/C",[13],77.3%
same,"viability, T/C",[14],70.1%
same,"viability, T/C",[15],72.3%
same,"viability, T/C",[16],65%
same,"viability, T/C",[17],55%
same,"viability, T/C",[18],31.8%
same,"viability, T/C",[19],67.3%
same,"viability, T/C",[20],69.9%
same,"viability, T/C",[21],60.6%
same,"viability, T/C",[22],59.4%
same,"viability, T/C",[23],50.1%
same,"viability, T/C",[24],33.8%
same,"viability, T/C",[25],65.7%
same,"viability, T/C",[26],74.8%
same,"viability, T/C",[27],56.9%
same,"viability, T/C",[28],55.7%
same,"viability, T/C",[29],47.6%
same,"viability, T/C",[30],24.6%
same,"viability, T/C",[31],60.6%
same,"viability, T/C",[32],60.4%
same,"viability, T/C",[33],58.3%
same,"viability, T/C",[34],52.8%
same,"viability, T/C",[35],48.8%
same,"viability, T/C",[36],20.1%
